Measured values reported in article PMC8165021 (Bioorganic & medicinal chemistry letters, 2021).

Assays:
D3R [1] = target: T1, D3R (Homo sapiens, UniProt P35462); experiment: Radioligand binding at D3R; settings: for D3R selectivities versus the other dopamine receptors tested: versus D1R, D2R, D4R, D5R
D3R [2] = target: T1, D3R; settings: flexible n-butyl linker compound from previous study; ref [19]; cited from earlier work

T1 sequence (P35462 whole entry): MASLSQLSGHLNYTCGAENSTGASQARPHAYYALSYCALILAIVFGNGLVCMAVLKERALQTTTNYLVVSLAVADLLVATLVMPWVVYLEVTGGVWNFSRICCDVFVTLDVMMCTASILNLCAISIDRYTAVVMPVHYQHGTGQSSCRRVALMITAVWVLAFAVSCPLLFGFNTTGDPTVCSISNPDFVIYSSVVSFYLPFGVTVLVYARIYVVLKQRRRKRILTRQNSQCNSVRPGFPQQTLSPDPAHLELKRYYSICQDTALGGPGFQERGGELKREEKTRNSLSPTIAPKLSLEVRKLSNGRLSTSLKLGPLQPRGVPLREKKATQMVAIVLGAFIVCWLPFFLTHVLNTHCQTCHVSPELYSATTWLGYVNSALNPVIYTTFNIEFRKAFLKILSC

COc1cc2c(cc1OC)CN(Cc1ccccc1CNC(=O)c1cccc(C#N)c1)CC2 [5s]
D3R selectivities versus the other dopamine receptors tested (D3R [1]): 15- to 420 fold

COc1cc2c(cc1OC)CN(Cc1ccccc1CNC(=O)c1ccc(C#N)cc1)CC2 [5t]
D3R selectivities versus the other dopamine receptors tested (D3R [1]): 15- to 420 fold

COc1cc2c(cc1O)CN(Cc1ccccc1CNC(=O)c1cccc(C#N)c1)CC2 [5i]
D3R selectivity versus D4R (D3R [1]; ratio of Ki values): > 100 fold

COc1cc2c(cc1O)CN(CCCCNC(=O)c1ccc(C#N)cc1)CC2 [compound 1]
selectivity for D3R over σ2R (D3R [2]): good selectivity

O=C(NCc1ccccc1CN1CCc2cc(O)c(O)cc2C1)c1cccc(Br)c1 [6a]
D3R selectivity versus D1R, D2R and D4R (D3R [1]): < 50 fold
